Read-outs that look alike come from different tables or passages of the source.
Experiments:
human HDAC3 [1] = molecular target: T1, human HDAC3 (Homo sapiens, UniProt O15379); details: training set, from in vitro IC50; cited from earlier work
human HDAC2 [2] = molecular target: T2, human HDAC2 (Homo sapiens, UniProt Q92769); details: training set, from in vitro IC50; cited from earlier work
human HDAC1 [3] = molecular target: T3, human HDAC1 (Homo sapiens, UniProt Q13547); details: training set, from in vitro IC50; cited from earlier work
T3 sequence (Q13547 whole entry): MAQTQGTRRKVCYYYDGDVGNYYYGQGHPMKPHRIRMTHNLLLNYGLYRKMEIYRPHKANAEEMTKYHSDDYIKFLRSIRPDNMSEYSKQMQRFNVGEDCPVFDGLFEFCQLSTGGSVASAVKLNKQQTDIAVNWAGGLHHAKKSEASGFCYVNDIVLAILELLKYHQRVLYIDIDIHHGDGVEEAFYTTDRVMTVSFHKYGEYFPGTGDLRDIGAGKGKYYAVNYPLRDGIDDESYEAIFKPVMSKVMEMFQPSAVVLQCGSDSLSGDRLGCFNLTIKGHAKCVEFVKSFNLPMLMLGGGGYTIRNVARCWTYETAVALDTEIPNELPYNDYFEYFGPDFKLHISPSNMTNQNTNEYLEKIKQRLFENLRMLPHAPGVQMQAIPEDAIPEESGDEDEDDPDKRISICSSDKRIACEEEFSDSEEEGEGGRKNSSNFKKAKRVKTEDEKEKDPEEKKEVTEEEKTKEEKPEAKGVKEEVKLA

human HDAC1 [4] = molecular target: T3, human HDAC1; test: HDAC1 inhibition, fluorogenic peptide substrate Ac-RHKK(Acetyl)-AMC; format: biochemical; details: test set
Description: (§1) HDAC1, 2, 3 inhibitory activity for the novel inhibitors was performed as previously reported. To keep the test number small, we applied a two-step screening.
(§2) A fluorogenic peptide derived from p53 (Ac-RHKK(Acetyl)-AMC) was used as substrate. The measurements were performed in an assay buffer (50 mM Hepes, 150 mM NaCl, 5 mM MgCl2, 1 mM TCEP and 0.2 mg/mL BSA, pH 7.4 adjusted with NaOH) at 37 °C. Inhibitors at different concentrations were incubated with 10 nM HDAC1, 3 nM HDAC2 or 3 nM HDAC3 (final concentration) for at least 5 min. The reaction was started with the addition of the fluorogenic substrate (20 µM final concentration) and incubated for 30 min for HDAC2 and HDAC3 and 90 min for HDAC1. The reaction was stopped with a solution of 1 mg/mL trypsin in 1 mM HCl and incubated for 1 h at 37 °C. The fluorescence intensity was recorded with an Envision 2104 Multilabel Plate Reader (PerkinElmer, Waltham, MA) with an excitation wavelength of 380 ± 8 nm and an emission wavelength of 430 ± 8 nm. The received fluorescence intensities were normalized with uninhibited reaction as 100% and the reaction without enzyme as 0%. A nonlinear regression analysis was done to determine the IC50 value.

human HDAC2 [5] = molecular target: T2, human HDAC2; test: HDAC2 inhibition, fluorogenic peptide substrate Ac-RHKK(Acetyl)-AMC; format: biochemical; details: test set
Description: as §1, §2

human HDAC3 [6] = molecular target: T1, human HDAC3; test: HDAC3 inhibition, fluorogenic peptide substrate Ac-RHKK(Acetyl)-AMC; format: biochemical; details: test set
Description: as §1, §2

T1 sequence (O15379 whole entry): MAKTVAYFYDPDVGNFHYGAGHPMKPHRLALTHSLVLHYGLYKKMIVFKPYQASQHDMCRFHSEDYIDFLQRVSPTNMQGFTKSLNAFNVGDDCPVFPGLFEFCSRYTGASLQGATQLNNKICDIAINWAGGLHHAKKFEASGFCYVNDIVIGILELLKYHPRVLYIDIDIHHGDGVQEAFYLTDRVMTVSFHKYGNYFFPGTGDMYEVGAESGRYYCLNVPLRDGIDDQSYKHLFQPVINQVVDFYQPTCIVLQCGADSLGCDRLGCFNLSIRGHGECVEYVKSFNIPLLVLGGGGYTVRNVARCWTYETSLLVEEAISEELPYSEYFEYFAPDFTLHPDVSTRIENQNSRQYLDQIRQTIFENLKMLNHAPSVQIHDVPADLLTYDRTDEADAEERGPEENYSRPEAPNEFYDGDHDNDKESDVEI
T1 sequence (O75376 395-489 partner limits assumed): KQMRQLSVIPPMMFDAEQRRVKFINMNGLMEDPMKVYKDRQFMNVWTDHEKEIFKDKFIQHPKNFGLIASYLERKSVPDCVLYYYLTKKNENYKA
T2 sequence (Q92769 whole entry): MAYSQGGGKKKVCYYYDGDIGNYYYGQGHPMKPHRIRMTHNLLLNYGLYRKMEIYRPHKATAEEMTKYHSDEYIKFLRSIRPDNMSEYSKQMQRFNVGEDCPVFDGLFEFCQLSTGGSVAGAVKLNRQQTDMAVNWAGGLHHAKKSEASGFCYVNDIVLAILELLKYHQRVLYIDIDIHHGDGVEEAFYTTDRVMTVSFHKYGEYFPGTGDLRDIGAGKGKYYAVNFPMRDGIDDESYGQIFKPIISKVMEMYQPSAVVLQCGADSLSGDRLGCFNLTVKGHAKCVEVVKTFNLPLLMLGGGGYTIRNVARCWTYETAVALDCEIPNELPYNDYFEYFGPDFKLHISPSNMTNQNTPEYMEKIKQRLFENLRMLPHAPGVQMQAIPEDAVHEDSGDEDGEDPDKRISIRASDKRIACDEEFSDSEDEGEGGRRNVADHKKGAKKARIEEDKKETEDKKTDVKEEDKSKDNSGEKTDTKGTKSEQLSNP

SMILES	HDAC3-pIC50 (human HDAC3 [1])	HDAC2-pIC50 (human HDAC2 [2])	HDAC1-pIC50 (human HDAC1 [3])	also measured
Cn1cc(CN2CCN(c3cnc(C(=O)Nc4ccccc4N)cn3)CC2)c2ccccc21 [19k]	6.23	6.25	6.85	
CN1CCN(c2cnc(C(=O)Nc3cc(-c4cccs4)ccc3N)cn2)CC1 [30b]				Experimental HDAC1 pIC50 (human HDAC1 [4]): 7.39; IC50 (human HDAC1 [4]; read-out: HDAC1 IC50): 0.04 ± 0.006 µM; Experimental HDAC2 pIC50 (human HDAC2 [5]): 6.10; IC50 (human HDAC2 [5]): 0.79 ± 0.02 µM; HDAC3 % inhibition (human HDAC3 [6]; @1 µM): 6%; HDAC3 % inhibition (human HDAC3 [6]; @10 µM): 35%
Nc1ccccc1NC(=O)c1cnc(N2CCN(CCc3ccccc3)CC2)cn1 [19a]	5.95	6.10	6.29	
Cn1cc(CCN2CCN(c3cnc(C(=O)Nc4ccc(F)cc4N)cn3)CC2)c2ccccc21 [19m]	6.40	5.83	6.40	
Cn1cc(CN2CCN(c3cnc(C(=O)Nc4cc(F)c(F)cc4N)cn3)CC2)c2ccccc21 [19l]	6.09	6.25	6.54	
CN1CCN(c2ncc(C(=O)Nc3cc(-c4cccs4)ccc3N)cn2)CC1 [30a]				IC50 (human HDAC1 [4]; read-out: Experimental HDAC1 pIC50 (converted)): 0.324 µM; IC50 (human HDAC2 [5]): 0.61 ± 0.02 µM; inhibition at 1 µM (human HDAC3 [6]; @1 µM): 8%; inhibition at 10 µM (human HDAC3 [6]; @10 µM): 38%
Nc1cc(Cl)ccc1NC(=O)c1cnc(N2CCNCC2)cn1 [25a]	5.06			
Cn1cc(CN2CCN(c3cnc(C(=O)Nc4cc(F)ccc4N)cn3)CC2)c2ccccc21 [23b]	6.30	6.30	6.57	
Cn1cc(CCN2CCN(c3cnc(C(=O)Nc4cc(-c5cccs5)ccc4N)cn3)CC2)c2ccccc21 [21a]		5.61	6.59	
Cn1cc(CCN2CCN(c3cnc(C(=O)Nc4cc(F)ccc4N)cn3)CC2)c2ccccc21 [23c]	6.23	5.86	6.48	
CC(=O)N1CCN(c2cnc(C(=O)Nc3ccccc3N)cn2)CC1 [30d]				Experimental HDAC1 pIC50 (human HDAC1 [4]): 5.72; IC50 (human HDAC1 [4]; read-out: HDAC1 IC50): 1.9 ± 0.1 µM; Experimental HDAC2 pIC50 (human HDAC2 [5]): 4.62; IC50 (human HDAC2 [5]): 24 ± 2 µM; HDAC3 % inhibition (human HDAC3 [6]; @1 µM): 15%; HDAC3 % inhibition (human HDAC3 [6]; @10 µM): 72%
CN1CCN(c2cnc(C(=O)Nc3cc(-c4ccccc4F)ccc3N)cn2)CC1 [29d]	4.92	6.59	6.74	
Cn1cc(CN2CCN(c3ncc(C(=O)Nc4ccccc4N)cn3)CC2)c2ccccc21 [19j]	5.76	6.03	6.35	
Nc1ccccc1NC(=O)c1cnc(N2CCN(Cc3ccccn3)CC2)cn1 [19d]	5.97	5.84	6.28	
Nc1cc(Cl)ccc1NC(=O)c1cnc(N2CCN(CCc3c[nH]c4ccccc34)CC2)cn1 [19i]	5.72	5.57	5.52	
CN1CCN(c2cnc(C(=O)Nc3cc(-c4ccsc4)ccc3N)cn2)CC1 [29a]	5.36	6.74	6.96	
Nc1cc(F)ccc1NC(=O)c1ccc(C(=O)NCc2cccnc2)cc1 [31c]				inhibition at 1 µM (human HDAC1 [4]): 6%; inhibition at 10 µM (human HDAC1 [4]): 36%; inhibition at 1 µM (human HDAC2 [5]): 14%; inhibition at 10 µM (human HDAC2 [5]): 51%; inhibition at 1 µM (human HDAC3 [6]; @1 µM): 25%; inhibition at 10 µM (human HDAC3 [6]; @10 µM): 66%
Nc1ccccc1NC(=O)c1cnc(N2CCN(Cc3csc4ccccc34)CC2)cn1 [19e]	6.08	6.15	6.68	
Nc1cc(F)ccc1NC(=O)c1ccc(C(=O)NCc2ccncc2)cc1 [31b]				inhibition at 1 µM (human HDAC1 [4]): 0%; inhibition at 10 µM (human HDAC1 [4]): 27%; inhibition at 1 µM (human HDAC2 [5]): 13%; inhibition at 10 µM (human HDAC2 [5]): 30%; inhibition at 1 µM (human HDAC3 [6]; @1 µM): 19%; inhibition at 10 µM (human HDAC3 [6]; @10 µM): 59%
Nc1cc(F)ccc1NC(=O)c1ccc(C(=O)NCc2ccccc2)cc1 [31a]				inhibition at 1 µM (human HDAC1 [4]): 4%; inhibition at 10 µM (human HDAC1 [4]): 31%; inhibition at 1 µM (human HDAC2 [5]): 10%; inhibition at 10 µM (human HDAC2 [5]): 37%; inhibition at 1 µM (human HDAC3 [6]; @1 µM): 21%; inhibition at 10 µM (human HDAC3 [6]; @10 µM): 65%
Nc1cc(F)c(F)cc1NC(=O)c1cnc(N2CCN(CCc3c[nH]c4ccccc34)CC2)cn1 [19h]	6.24	6.13	6.09	
Nc1ccc(-c2ccccc2F)cc1NC(=O)c1cnc(N2CCN(CCc3c[nH]c4ccccc34)CC2)cn1 [21c]	4.82	6.12	6.12	
Nc1cc(F)c(F)cc1NC(=O)c1cnc(N2CCNCC2)cn1 [25b]	5.80	5.38	5.37	
Nc1ccc(-c2ccc(F)cc2)cc1NC(=O)c1cnc(N2CCN(CCc3c[nH]c4ccccc34)CC2)cn1 [21b]		6.11	6.15	
CC(=O)N1CCN(c2cnc(C(=O)Nc3cc(-c4cccs4)ccc3N)cn2)CC1 [30c]				Experimental HDAC1 pIC50 (human HDAC1 [4]): 7.72; IC50 (human HDAC1 [4]; read-out: HDAC1 IC50): 0.019 ± 0.001 µM; Experimental HDAC2 pIC50 (human HDAC2 [5]): 5.96; IC50 (human HDAC2 [5]): 1.1 ± 0.1 µM; HDAC3 % inhibition (human HDAC3 [6]; @1 µM): 4%; HDAC3 % inhibition (human HDAC3 [6]; @10 µM): 30%
Nc1cc(F)ccc1NC(=O)c1cnc(N2CCNCC2)cn1 [23a]	6.40	5.66	5.48	
Nc1ccccc1NC(=O)c1cnc(N2CCN(CCc3c[nH]c4ccccc34)CC2)cn1 [19g]	6.31	6.02	6.51	
COc1ccc(NC(=O)c2cnc(N3CCNCC3)cn2)c(N)c1 [27c]	4.85	4.85	4.7	
Nc1ccc(-c2ccc(F)cc2)cc1NC(=O)c1cnc(N2CCNCC2)cn1 [29c]	5.17	6.47	6.80	
Nc1ccc(-c2cccs2)cc1NC(=O)c1cnc(N2CCNCC2)cn1 [29b]	5.21	6.59	7.15	

Source: paper PMC9032825, “Docking, Binding Free Energy Calculations and In Vitro Characterization of Pyrazine Linked 2-Aminobenzamides as Novel Class I Histone Deacetylase (HDAC) Inhibitors” (Molecules, 2022)
